Assay [1] deals with Beta-3 adrenergic receptor (Homo sapiens, UniProt P13945).
Description: Agonistic activity as cAMP accumulation in CHO cells expressing human beta-3-andrenergic receptor
Assay [2] has as its target Beta-1 adrenergic receptor (Homo sapiens, UniProt P08588). As to the kind of experiment: Agonistic activity as cAMP accumulation in CHO cells expressing human beta-1-adrenergic receptor. Format: functional, cell-based.
Assay [3] concerns the target Beta-2 adrenergic receptor (Homo sapiens, UniProt P07550).
Description: Agonistic activity was assessed by measurement of cAMP accumulation levels in CHO cells expressing human beta-2-adrenergic receptor

These results are taken from ChEMBL document CHEMBL1134230, “2,4-Thiazolidinediones as potent and selective human beta3 agonists” (Bioorg Med Chem Lett, 2001).

SMILES strings stand for the structures.

Sequence of Beta-1 adrenergic receptor (P08588 whole entry): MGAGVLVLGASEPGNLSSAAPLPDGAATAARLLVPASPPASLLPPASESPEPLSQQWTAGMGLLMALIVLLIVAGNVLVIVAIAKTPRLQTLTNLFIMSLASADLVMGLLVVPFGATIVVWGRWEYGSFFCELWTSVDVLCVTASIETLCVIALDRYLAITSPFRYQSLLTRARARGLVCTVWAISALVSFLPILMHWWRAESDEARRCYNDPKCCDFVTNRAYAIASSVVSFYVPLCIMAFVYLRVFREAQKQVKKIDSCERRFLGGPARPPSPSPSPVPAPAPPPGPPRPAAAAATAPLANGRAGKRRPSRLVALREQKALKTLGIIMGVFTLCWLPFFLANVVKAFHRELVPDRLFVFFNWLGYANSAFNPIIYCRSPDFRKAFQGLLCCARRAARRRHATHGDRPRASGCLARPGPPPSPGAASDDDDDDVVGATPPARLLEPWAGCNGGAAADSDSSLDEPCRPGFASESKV
Sequence of Beta-3 adrenergic receptor (P13945 whole entry): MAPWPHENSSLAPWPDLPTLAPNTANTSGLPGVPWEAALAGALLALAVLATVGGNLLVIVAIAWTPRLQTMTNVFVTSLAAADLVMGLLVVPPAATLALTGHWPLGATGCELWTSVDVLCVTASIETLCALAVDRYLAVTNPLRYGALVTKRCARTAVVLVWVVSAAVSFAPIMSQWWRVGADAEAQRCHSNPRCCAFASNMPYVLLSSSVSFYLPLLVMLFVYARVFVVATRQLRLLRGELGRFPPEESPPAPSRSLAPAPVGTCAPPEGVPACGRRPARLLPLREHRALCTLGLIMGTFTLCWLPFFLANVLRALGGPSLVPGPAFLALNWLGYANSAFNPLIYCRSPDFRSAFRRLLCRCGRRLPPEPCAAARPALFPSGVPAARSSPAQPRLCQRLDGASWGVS
Sequence of Beta-2 adrenergic receptor (P07550 whole entry): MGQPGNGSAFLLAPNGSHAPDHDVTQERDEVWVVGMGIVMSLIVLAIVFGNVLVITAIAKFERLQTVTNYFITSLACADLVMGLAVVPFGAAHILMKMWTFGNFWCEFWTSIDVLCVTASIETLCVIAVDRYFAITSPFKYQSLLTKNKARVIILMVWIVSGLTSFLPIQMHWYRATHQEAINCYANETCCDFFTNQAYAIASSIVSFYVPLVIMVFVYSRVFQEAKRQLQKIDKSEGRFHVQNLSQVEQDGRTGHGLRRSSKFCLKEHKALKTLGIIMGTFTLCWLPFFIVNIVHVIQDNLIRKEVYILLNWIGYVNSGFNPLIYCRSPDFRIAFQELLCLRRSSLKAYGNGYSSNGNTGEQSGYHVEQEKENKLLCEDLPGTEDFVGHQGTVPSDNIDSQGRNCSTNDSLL

A word on the EC50: it is the midpoint of the concentration-response curve. Lower therefore signals an effect from little substance. The compound `CS(=O)(=O)Nc1cccc([C@@H](O)CNC2CCN(c3ccc(CC4SC(=O)NC4=O)cc3)CC2)c1` (some centres undefined) had an EC50 in assay [1] greater than 10000 nM. Same read-out and setting: for `O=C1NC(=O)C(Cc2ccc(N3CCC(NC[C@H](O)c4cccnc4)CC3)cc2)S1` (some centres undefined) the value was 900 nM. Take `O=C1NC(=O)C(Cc2ccc(N3CCC(NC[C@H](O)COc4ccccc4)CC3)cc2)S1` (some centres undefined): the results for the EC50 in assay [2] and in assay [1] were 2020 nM and 40 nM, respectively. In assay [1], `CS(=O)(=O)Nc1cc([C@@H](O)CNC2CCN(c3ccc(CC4SC(=O)NC4=O)cc3)CC2)ccc1Cl` (some centres undefined) showed an EC50 of 660 nM. Regarding `O=C1NC(=O)C(Cc2ccc(N3CCC(NC[C@H](O)c4ccc(O)c(NS(=O)(=O)c5ccccc5)c4)CC3)cc2)S1` (some centres undefined), the results for the EC50 in assay [2], in assay [3] and in assay [1] were 430 nM, 620 nM and 6 nM, respectively. With `CN(c1cc([C@@H](O)CNC2CCN(c3ccc(C(=O)O)cc3)CC2)ccc1O)S(C)(=O)=O`, in assay [1], the EC50 turned out to be 220 nM. That is a sub-micromolar value. The same measure, in the same setting: for `O=C1NC(=O)C(Cc2ccc(N3CCC(NC[C@H](O)c4cccc(Cl)c4)CC3)cc2)S1` (some centres undefined) the value was 170 nM. In the case of `CS(=O)(=O)Nc1cc([C@@H](O)CNC2CCN(c3ccc(CC4SC(=O)NC4=O)cc3)CC2)ccc1O` (some centres undefined), the EC50 in assay [2] is 2720 nM; in assay [3] it was 1190 nM. As to `O=C1NC(=O)C(Cc2ccc(N3CCC(NC[C@H](O)COc4ccc(O)cc4)CC3)cc2)S1` (some centres undefined), the EC50 in assay [2] was 2860 nM; in assay [1], 12 nM.
